pIC50, pKd: −log10 of the molar value.
Key:
[1] = molecular target: T1, G12C GTPγS KRAS (aa2-184) (Homo sapiens, UniProt P01116, G12C); assay: SPR binding (Biacore), GTPγS-loaded KRAS G12C; details: for pKd: 10° C., geometric mean when n>1, read-out: KRasGTPgS G12C SPR KD; for KRasGTPgS G12C SPR t1/2: dissociative half-life, t1/2=0.693/koff
T1 construct: G12CGDP KRAS (aa2-184); made in house
Source text: (§1) No additional regeneration was used.
(§2) Compound dissociation was monitored for at least 3600 seconds. […] No additional regeneration was used.

[2] = tested on: KRAS G12C, KRAS G12D, and KRAS G12V receptors; assay: SPR binding, summary statement for KRAS mutants; details: alkylidenyl and/or haloalkylidenyl on R^1; statement in words
Source text: as §1, §2

WT GTPγS KRAS (aa1-185) = molecular target: T2, WT GTPγS KRAS (aa1-185) (Homo sapiens, UniProt P01116); assay: SPR binding (Biacore), GTPγS-loaded WT KRAS; details: for pKd: 10° C., geometric mean when n>1, read-out: KRasGTPgS SPR KD; for KRasGTPgS SPR t1/2: dissociative half-life, t1/2=0.693/koff
T2 construct: wild-type (WT) KRASGDP (aa1-185); made in house
Source text: as §1, §2

[3] = tested on: SW620 (colorectal cancer cell line); assay: KRAS Cell Titer Glo (CTG) viability assay, SW620; format: cell-based; details: Homo sapiens, SW-620, 168 h, SW620, 7-day; geometric mean when n>1
Source text: (§3) The CellTiter-Glo® (CTG) Luminescent Cell Viability Assay is a homogeneous method of determining the number of viable cells in culture based on quantitation of the ATP present, an indicator of metabolically active cells. The CTG is designed for use with multi-well formats, making it ideal for automated high-throughput screening (HTS), cell proliferation and cytotoxicity assays. The homogeneous assay procedure involves adding the single reagent (CellTiter-Glo® Reagent) directly to cells cultured in serum-supplemented medium. Cell washing, removal of medium and multiple pipetting steps are not required. The system detects as few as 15 cells per well in a 384-well format in 10 minutes after adding reagent and mixing.
(§4) Cells are grown in humidified 5% CO2 incubator at 37° C. using the culture conditions outlined below. All cell culture media reagents were purchased from Gibco. Cell lines purchased from ATCC: H358 (non-small cell lung cancer cell line), SW620 (colorectal cancer cell line), PANC08.13 (RPM11640+10% FBS+10 units/ml Insulin, pancreatic cancer cell line). Test and control compounds are dispensed as nanoliter drops according to desired final concentrations in 0.1% DMSO using Echo Acoustic Dispenser onto 384 assay plates (Corning, Cat #3764) prior to cell seeding. Cells were seeded in 40 μL volume per well at the following cell densities (cells per well): H358 (300), SW620 (750), PANC 08.13 (600). Cells are incubated in the presence of compound for 7-days. Viability is determined on Day 7 using CellTiter-Glo® (CTG) Luminescent Cell Viability Assay (Promega). CTG is added to a final volume of 20 μl per well and incubated at room temperature for 15 minutes before luminescence is captured using an EnVision Reader with LUM384 US protocol. Data is analyzed using Activity Base to determine compound response and will be represented either as a percent effect (PCTEFF) or percent control (PCTOCTL) as described: Zero percent effect control (ZPE) (Negative control)—100% DMSO. Hundred percent effect (HPE) (Positive control)—1 μM Trametinib (GSK1120212, MEK inhibitor) (4 nl of 10 mM and 36 nl of DMSO per well). The following equations/nomenclature are used (% Effect; PCTEFF) and (% of Control; PCTOCTL): PCTEFF: 100*(Raw_Data_Value−HPE/ZPE−HPE), PCTOCTL: 100*Raw_Data_Value/User_Defined_Array), where the User_Defined_Array is either summarized HPE or ZPE.

[4] = molecular target: T3, G12D GTPγS KRAS (aa1-185) (Homo sapiens, UniProt P01116, G12D); assay: SPR binding (Biacore), GTPγS-loaded KRAS G12D; details: for pKd: 10° C., geometric mean when n>1, read-out: KRasGTPgS G12D SPR KD; for KRasGTPgS G12D SPR t1/2: dissociative half-life, t1/2=0.693/koff
T3 construct: G12DGDP KRAS (aa1-185); made in house
Source text: as §1, §2

[5] = tested on: H358 (non-small cell lung cancer cell line); assay: KRAS Cell Titer Glo (CTG) viability assay, H358; format: cell-based; details: Homo sapiens, NCI-H358, 168 h, H358, 7-day; geometric mean when n>1
Source text: as §3, §4

[6] = tested on: pancreatic cancer, non-small cell lung cancer, and colorectal cancer; assay: CTG assay, summary statement for cancer cell lines; format: cell-based; details: alkylidenyl and/or haloalkylidenyl on R^1; statement in words
Source text: as §3
Cells are grown in humidified 5% CO2 incubator at 37° C. using the culture conditions outlined below. All cell culture media reagents were purchased from Gibco. […] Viability is determined on Day 7 using CellTiter-Glo® (CTG) Luminescent Cell Viability Assay (Promega). CTG is added to a final volume of 20 μl per well and incubated at room temperature for 15 minutes before luminescence is captured using an EnVision Reader with LUM384 US protocol. Data is analyzed using Activity Base to determine compound response and will be represented either as a percent effect (PCTEFF) or percent control (PCTOCTL) as described: Zero percent effect control (ZPE) (Negative control)—100% DMSO. […]

[7] = tested on: PANC08.13 (pancreatic cancer cell line); assay: KRAS Cell Titer Glo (CTG) viability assay, Panc08.13; format: cell-based; details: Homo sapiens, PANC-08-13, 168 h, Panc08.13, 7-day; geometric mean when n>1
Source text: as §3, §4

[8] = molecular target: T4, G12V GTPγS KRAS (aa2-184) (Homo sapiens, UniProt P01116, G12V); assay: SPR binding (Biacore), GTPγS-loaded KRAS G12V; details: for pKd: 10° C., geometric mean when n>1, read-out: KRasGTPgS G12V SPR KD; for KRasGTPgS G12V SPR t1/2: dissociative half-life, t1/2=0.693/koff
T4 construct: G12VGDP KRAS (aa2-184); made in house
Source text: as §1, §2

[9] = molecular target: T5, wild-type (WT) KRAS GDP (aa1-185) (Homo sapiens, UniProt P01116); assay: SPR binding (Biacore), GDP-loaded WT KRAS; details: 10° C., geometric mean when n>1
T5 construct: wild-type (WT) KRASGDP (aa1-185); made in house
Source text: as §1, §2

G12D GDP KRAS (aa1-185) = G12D GDP KRAS (aa1-185) (Homo sapiens, UniProt P01116, G12D); assay: biochemical
Method: (§5) The binding affinity and kinetics were measured by Surface Plasmon Resonance (SPR) using Biacore 8K or 8K+ (Cytiva, Marlborough, MA) instruments. Recombinant, C-terminal site-specific biotinylated, wild-type (WT) KRASGDP (aa1-185), G12DGDP KRAS (aa1-185), G12CGDP KRAS (aa2-184), G12VGDP KRAS (aa2-184), WT HRASGDP (aa2-184) and WT NRASGDP (aa2-185) proteins were purified in presence of 1 μM GDP. The GDP-loaded KRAS proteins then went through nucleotide exchange with GTPγS (a non-hydrolysable analog of GTP) in the presence of alkaline phosphatase beads to obtain WTGTPγS KRAS (aa1-185), G12DGTPγS KRAS (aa1-185), G12CGTPγS KRAS (aa2-184), G12VGTPγS KRAS (aa2-184), WT HRASGTPγS (aa2-184) and WT NRASGTPγS (aa2-185). Binding measurements were performed parallelly in sets of either WT/G12D/G12C/G12V KRAS or WT K/H/N RAS proteins in GDP- and/or GTPγS-loaded forms, respectively.
(§6) Biacore instrument was desorbed and docked with a Series S Sensor Chip SA. […] Compound binding kinetics were measured in either multi-cycle or single-cycle kinetic format.
(§7) A 2-fold, 10-point serial dilution of test compounds was set-up in a 96-well microplate (Greiner; Cat #650101) with a top concentration of either 10 μM or 100 μM. Binding kinetics was measured at 10° C. by injecting serial dilution of compounds onto both reference and RAS immobilized channels at a flow rate of 100 μL/min and association time of 90 seconds. Compound dissociation was monitored for at least 400 seconds during each cycle. […]
(§8) A 3-fold, 6-point serial dilution of compounds was set-up in a deep 96-well microplate (Greiner Bio; Cat #780201) with the highest concentration of 1 μM (concentration range: 0.004-1 μM). Binding kinetics was measured at 10° C. by injecting serial dilutions of compounds in increasing order onto reference as well as RAS immobilized channels at a flow rate of 100 μL/min and association time of 120 seconds. Compound dissociation was monitored for at least 3600 seconds. […]
(§9) Both MCK and SCK data were processed and analyzed using Biacore Insight evaluation software (Cytiva, Marlborough, MA)). […]

G12V GDP KRAS (aa2-184) = G12V GDP KRAS (aa2-184) (Homo sapiens, UniProt P01116, G12V); assay: biochemical
Method: as §5, §6, §7, §8, §9

G12C GDP KRAS (aa2-184) = G12C GDP KRAS (aa2-184) (Homo sapiens, UniProt P01116, G12C); assay: biochemical
Method: as §5, §6, §7, §8, §9

Structure (SMILES)	pKd [1]	KRasGTPgS G12C SPR t1/2 [1]	binding affinities [2]	pKd (WT GTPγS KRAS (aa1-185))	KRasGTPgS SPR t1/2 (WT GTPγS KRAS (aa1-185))	pIC50 [3]	pKd [4]	KRasGTPgS G12D SPR t1/2 [4]	pIC50 [5]	cellular activities against certain tumors [6]	pIC50 [7]	pKd [8]	KRasGTPgS G12V SPR t1/2 [8]	pKd [9]	pKd (G12D GDP KRAS (aa1-185))	pKd (G12V GDP KRAS (aa2-184))	pKd (G12C GDP KRAS (aa2-184))
C#Cc1c(F)ccc2cc(O)cc(-c3nc4c5c(nc(OC[C@@]67CCCN6C/C(=C/F)C7)nc5c3F)N3CCCOC[C@H]3CO4)c12 [Example 34, 5-ethynyl-6-fluoro-4-[(8aS)-4-fluoro-2-{[(2E,7aS)-2-(fluoromethylidene)tetrahydro-1H-pyrrolizin-7a(5H)-yl]methoxy}-8a,9,12,13-tetrahydro-8H,11H-7,10-dioxa-1,3,6,13a-tetraazanaphtho[1,8-ab]heptalen-5-yl]naphthalen-2-ol]	> 10.84	>192.7 h	may enhance	> 10.97	>192.7 h	8.64	> 11.21	>192.7 h	8.92	may enhance	> 9.30	> 11.01	>192.7 h				
C#Cc1c(F)ccc2cc(O)cc(-c3nc4c5c(nc(OC[C@@]67CCCN6CC(=C)C7)nc5c3F)N3CCCC[C@H]3CO4)c12 [Example 36, 5-ethynyl-6-fluoro-4-[(8aS)-4-fluoro-2-{[(7aS)-2-methylidenetetrahydro-1H-pyrrolizin-7a(5H)-yl]methoxy}-8,8a,9,10,11,12-hexahydro-7-oxa-1,3,6,12a-tetraazabenzo[4,5]cyclohepta[1,2,3-de]naphthalen-5-yl]naphthalen-2-ol]	9.43	11.0 h		9.32	6.0 h	7.73	9.39	3.6 h	7.88		8.57	9.50	8.9 h	10.40	9.54	9.54	10.17
C#Cc1c(F)ccc2cc(O)cc(-c3nc4c5c(nc(OC[C@@]67CCCN6CC(=C)C7)nc5c3F)N(CC)CCO4)c12 [Example 37, 4-(10-ethyl-4-fluoro-2-{[(7aS)-2-methylidenetetrahydro-1H-pyrrolizin-7a(5H)-yl]methoxy}-9,10-dihydro-8H-7-oxa-1,3,6,10-tetraazacyclohepta[1,2,3-de]naphthalen-5-yl)-5-ethynyl-6-fluoronaphthalen-2-ol]	8.52	0.4 h		8.46	0.3 h	6.86	8.90	0.4 h	7.39		7.74	8.68	0.4 h	10.82	10.74	10.25	11.00
